US5283255A, “Wavelength-specific cytotoxic agents” (The University of British Columbia, priority 1992, dated 1994)

Key:
M-1 rhabdomycoscercoma = experiment: In vivo photosensitization, M-1 rhabdomyosarcoma system in DBA/J2 mice; conditions: for Number of Days Tumor Free (PR) / Cures (tumor regressed and tumor-free for 30 days): Table 6; for Number of Days Tumor Free (PR): 567 Jo/cm^2, IV 24 h before light; for Cures (tumor regressed and tumor-free for 30 days): 567 Jo/cm^2, 8 animals per group; for Days Tumor-free / Number of Cures: Table 7, light dose 378 To/cm^3; for Number of Cures: 9-15 animals
Protocol: Studies of potential photosensitizers were performed using the M-1 rhabdomycoscercoma system in DBA/J2 mice. The compositions to be tested were diluted to a concentration of […] in PBS from a stock solution in DMSO at 8 mg/ml (except Photofrin® II, which was diluted directly from the clinical vial). […]

tumor cells = experiment: Alternate in vivo assay: kill of tumor cells from dosed mice (MTT); conditions: 180 min
Absorption spectrum = type: physicochemical; conditions: R^1 and R^2 carbomethoxy; FIG. 3
From the text: All of the compositions of the invention employ as the light absorbing compound, a derivative of the protoporphyrin ring system which has a light absorption maximum in the range of 670-780 nanometers. […] Only BPD-DA has a major absorption peak at about 685 nm.

[1] = Solubility on dilution for addition to blood; conditions: DMSO stock 8 mg/ml diluted into PBS
VSV = experiment: microbe, parasite or virus in culture; design: species or system Vesicular stomatitis virus; conditions: Vesicular stomatitis virus, light or radiation study, 2 h, read-out: viral kill, 2 μg/ml; 1 ml; 2 h; 57.6 J/cm^2
target cells = experiment: In vitro evaluation of BPD-DA, -MA, -DB and -MB (as in Example 1); type: cell-based
Protocol: For the "affinity" assay, in the dark, 100 μl of the target cell suspension and 100 μl of the test or control compound were mixed. "Labeling" was allowed to continue for one hour at 4° C., and labeled cells were washed in the dark three times with 3 ml medium each time and resuspended in fresh medium. The resuspended cells were then subjected to light exposure at 300-750 nanometers for 30 minutes.
In a "direct" assay the target cells were irradiated immediately upon addition of the test or control compound.
The effect of irradiation was estimated using methods appropriate to the target cells.
The four compounds shown in FIG. 2, wherein R^1 and R^2 are carbomethoxy, were tested in vitro as described in Example 1.

skin = experiment: Skin sensitivity assay in mice bearing P815 tumors
Protocol: Mice bearing P815 tumors were shaved and injected with equivalent amounts of photosensitizer, and exposed to 72 Jo/cm^2 (80 mw/cm^2 -15 min-full spectrum) at various time intervals. Skin biopsies were taken at 24 and 48 hours after light irradiation and visual evaluations were made blind.

Row | SMILES | Number of Days Tumor Free (PR) (M-1 rhabdomycoscercoma) [days] | Cures (tumor regressed and tumor-free for 30 days) (M-1 rhabdomycoscercoma) | Days Tumor-free (M-1 rhabdomycoscercoma) [days] | Number of Cures (M-1 rhabdomycoscercoma) | % Kill (tumor cells; 80 μg/mouse IV, light dose 3.8 Jo) [%] | % Kill (tumor cells; 80 μg/mouse IV, light dose 7.6 Jo) [%] | major absorption peak (Absorption spectrum) | treatment required to achieve solubility [1] | log reduction at 2 µg/mL (VSV) | in vitro photosensitivity (target cells) | skin photosensitizing activity (skin; 72 Jo/cm^2, biopsies 24 and 48 h after light) | time dependence of skin photosensitizing activity (skin; light at various intervals after drug) | % Kill (tumor cells; 33 μg/mouse IV, light dose 5.7 Jo) [%]
1 | C=Cc1c(C)c2cc3nc(cc4[nH]c(cc5nc(cc1[nH]2)C(C)=C5CCC(=O)O)c(CCC(=O)O)c4C)C1(C)C3=CC=C(C(=O)OC)C1C(=O)OC (stereo not drawn) [BPD-DA] | 10.7 | 4 | 2.5 | 4 | 11.0 | 26.0 | about 685 nm |  |  |  |  |  | 
2 | C=Cc1c(C)c2cc3nc(cc4[nH]c(cc5nc(cc1[nH]2)C1(C)C5=CC=C(C(=O)OC)C1C(=O)OC)c(C)c4CCC(=O)O)C(CCC(=O)O)=C3C (stereo not drawn) [BPD-DB] | 10.6 | 3 | 13.0 | 8 |  |  |  |  |  |  |  |  | 
3 | C=Cc1c(C)c2cc3nc(cc4[nH]c(cc5nc(cc1[nH]2)C1(C)C5=CC=C(C(=O)OC)C1C(=O)OC)c(C)c4CCC(=O)O)C(CCC(=O)OC)=C3C (stereo not drawn) [BPD-MB] | 10.6 | 3 | 8.7 | 6 |  |  |  | required a 20-minute sonication in ultrasonic bath to achieve solubility | 4 | somewhat more active | to a lesser extent | only present when light treatment was given 3 hours post drug administration | 25.2
